Laboratory results reported in patent US11813340B2, “PSMA targeted radiohalogenated urea-polyaminocarboxylates for cancer radiotherapy” (The Johns Hopkins University, priority 2018, dated 2023).
Where two headings read alike, the source gives them in different places.

Test system: PSMA+PC3-PIP and PSMA-PC3-flu flank xenografts
Method: Final compounds were purified by HPLC. […] Organs were harvested 1, 4, and 24 h post-injection (n=5 per time point).

[1] = 4-hr, Blocker VK-02-90 1.0 nmole
[2] = 4-hr, Blocker VK-02-90 5.0 nmole
[3] = 4-hr, Blocker YC-I-27 0.5 nmole
[4] = 4-hr, Blocker YC-I-27 1.0 nmole
[5] = 24-hour, Blocker VK-02-90 0.5 nmole
[6] = 24-hour, Blocker VK-02-90 1.0 nmole
[7] = 24-hour, Blocker VK-02-90 5.0 nmole
[8] = 24-hour, Blocker YC-I-27 0.5 nmole
[9] = 24-hour, Blocker YC-I-27 1.0 nmole
[10] = 24-hour, Blocker YC-I-27 5 nmole

O=C([O-])CN1CCN(CC(=O)[O-])CCN(CC(=O)NCCCCC(=O)N(CCCC[C@H](NC(=O)N[C@@H](CCC(=O)O)C(=O)O)C(=O)O)Cc2ccc([125I])cc2)CCN(CC(=O)[O-])CC1.[Lu+3] [[^125I]VK-02-90-Lu]
Biodistribution, PIP tumor [1]: 27.1 ± 3.6 % injected dose/g | Biodistribution, Salivary glands [1]: 0.1 ± 0.02 % injected dose/g | Biodistribution, Spleen [1]: 0.2 ± 0.1 % injected dose/g | Biodistribution, Stomach [1]: 0.1 ± 0.03 % injected dose/g | Biodistribution, Blood [2]: 0 % injected dose/g | Biodistribution, Flu tumor [2]: 0.1 ± 0.01 % injected dose/g | Biodistribution, Kidneys [2]: 0.9 ± 0.3 % injected dose/g | Biodistribution, Lacrimal glands [2]: 0.1 ± 0.1 % injected dose/g | Biodistribution, PIP tumor [2]: 18.8 ± 2.0 % injected dose/g | Biodistribution, Salivary glands [2]: 0.05 ± 0.02 % injected dose/g | Biodistribution, Spleen [2]: 0.15 ± 0.08 % injected dose/g | Biodistribution, Stomach [2]: 0.1 ± 0.04 % injected dose/g | Biodistribution, Blood [3]: 0.4 ± 0.06 % injected dose/g | Biodistribution, Flu tumor [3]: 0.3 ± 0.1 % injected dose/g | Biodistribution, Kidneys [3]: 0.9 ± 0.1 % injected dose/g | Biodistribution, Lacrimal glands [3]: 0.2 ± 0.02 % injected dose/g | Biodistribution, PIP tumor [3]: 24.0 ± 3.2 % injected dose/g | Biodistribution, Salivary glands [3]: 3.3 ± 0.8 % injected dose/g | Biodistribution, Spleen [3]: 0.25 ± 0.07 % injected dose/g | Biodistribution, Stomach [3]: 1.3 ± 0.2 % injected dose/g | Biodistribution, Blood [4]: 0.4 ± 0.05 % injected dose/g | Biodistribution, Flu tumor [4]: 0.3 ± 0.1 % injected dose/g | Biodistribution, Kidneys [4]: 0.6 ± 0.03 % injected dose/g | Biodistribution, Lacrimal glands [4]: 0.2 ± 0.03 % injected dose/g | Biodistribution, PIP tumor [4]: 23.8 ± 1.1 % injected dose/g | Biodistribution, Salivary glands [4]: 3.2 ± 0.7 % injected dose/g | Biodistribution, Spleen [4]: 0.2 ± 0.04 % injected dose/g | Biodistribution, Stomach [4]: 1.2 ± 0.2 % injected dose/g | Biodistribution, Blood (4-hr, Blocker YC-I-27 5 nmole): 0.4 ± 0.1 % injected dose/g | Biodistribution, Flu tumor (4-hr, Blocker YC-I-27 5 nmole): 0.3 ± 0.1 % injected dose/g | Biodistribution, Kidneys (4-hr, Blocker YC-I-27 5 nmole): 0.7 ± 0.1 % injected dose/g | Biodistribution, Lacrimal glands (4-hr, Blocker YC-I-27 5 nmole): 0.5 ± 0.5 % injected dose/g | Biodistribution, Salivary glands (4-hr, Blocker YC-I-27 5 nmole): 5.0 ± 1.4 % injected dose/g | Biodistribution, Spleen (4-hr, Blocker YC-I-27 5 nmole): 0.3 ± 0.06 % injected dose/g | Biodistribution, Stomach (4-hr, Blocker YC-I-27 5 nmole): 1.6 ± 0.4 % injected dose/g | Biodistribution, Blood (24-hour, Blocker None): 0 % injected dose/g | Biodistribution, Flu tumor (24-hour, Blocker None): 0.05 ± 0.01 % injected dose/g | Biodistribution, Kidneys (24-hour, Blocker None): 1.3 ± 0.7 % injected dose/g | Biodistribution, Lacrimal glands (24-hour, Blocker None): 0.05 ± 0.04 % injected dose/g | Biodistribution, PIP tumor (24-hour, Blocker None): 18.0 ± 6.0 % injected dose/g | Biodistribution, Salivary glands (24-hour, Blocker None): 0.2 ± 0.08 % injected dose/g | Biodistribution, Spleen (24-hour, Blocker None): 0.1 ± 0.05 % injected dose/g | Biodistribution, Stomach (24-hour, Blocker None): 0.1 ± 0.04 % injected dose/g | Biodistribution, Blood [5]: 0.1 ± 0.01 % injected dose/g | Biodistribution, Flu tumor [5]: 0.04 ± 0.01 % injected dose/g | Biodistribution, Kidneys [5]: 0.5 ± 0.2 % injected dose/g | Biodistribution, Lacrimal glands [5]: 0.03 ± 0.02 % injected dose/g | Biodistribution, PIP tumor [5]: 16.3 ± 4.2 % injected dose/g | Biodistribution, Salivary glands [5]: 0.02 ± 0.01 % injected dose/g | Biodistribution, Spleen [5]: 0.04 ± 0.01 % injected dose/g | Biodistribution, Stomach [5]: 0.04 ± 0.04 % injected dose/g | Biodistribution, Blood [6]: 0 % injected dose/g | Biodistribution, Flu tumor [6]: 0.03 ± 0.01 % injected dose/g | Biodistribution, Kidneys [6]: 0.4 ± 0.1 % injected dose/g | Biodistribution, Lacrimal glands [6]: 0 % injected dose/g | Biodistribution, Salivary glands [6]: 0 % injected dose/g | Biodistribution, Spleen [6]: 0 % injected dose/g | Biodistribution, Stomach [6]: 0.03 ± 0.02 % injected dose/g | Biodistribution, Blood [7]: 0 % injected dose/g | Biodistribution, Flu tumor [7]: 0.02 ± 0.01 % injected dose/g | Biodistribution, Kidneys [7]: 0.2 ± 0.2 % injected dose/g | Biodistribution, Lacrimal glands [7]: 0.01 ± 0.03 % injected dose/g | Biodistribution, Salivary glands [7]: 0.01 ± 0.01 % injected dose/g | Biodistribution, Spleen [7]: 0.01 ± 0.03 % injected dose/g | Biodistribution, Stomach [7]: 0.04 ± 0.03 % injected dose/g | Biodistribution, Blood [8]: 0.03 ± 0.03 % injected dose/g | Biodistribution, Flu tumor [8]: 0.04 ± 0.02 % injected dose/g | Biodistribution, Kidneys [8]: 0.1 ± 0.05 % injected dose/g | Biodistribution, Lacrimal glands [8]: 0.03 ± 0.04 % injected dose/g | Biodistribution, PIP tumor [8]: 13.4 ± 3.8 % injected dose/g | Biodistribution, Salivary glands [8]: 0.6 ± 0.5 % injected dose/g | Biodistribution, Spleen [8]: 0.02 ± 0.02 % injected dose/g | Biodistribution, Stomach [8]: 0.1 ± 0.1 % injected dose/g | Biodistribution, Blood [9]: 0.02 ± 0.01 % injected dose/g | Biodistribution, Flu tumor [9]: 0.03 ± 0.01 % injected dose/g | Biodistribution, Lacrimal glands [9]: 0.02 ± 0.02 % injected dose/g | Biodistribution, Salivary glands [9]: 0.4 ± 0.2 % injected dose/g | Biodistribution, Spleen [9]: 0.04 ± 0.02 % injected dose/g | Biodistribution, Stomach [9]: 0.08 ± 0.03 % injected dose/g | Biodistribution, Blood [10]: 0.02 ± 0.01 % injected dose/g | Biodistribution, Flu tumor [10]: 0.03 ± 0.01 % injected dose/g | Biodistribution, Kidneys [10]: 0.05 ± 0.02 % injected dose/g | Biodistribution, Lacrimal glands [10]: 0.01 ± 0.02 % injected dose/g | Biodistribution, PIP tumor [10]: 6.6 ± 3.2 % injected dose/g | Biodistribution, Salivary glands [10]: 0.4 ± 0.1 % injected dose/g | Biodistribution, Spleen [10]: 0.01 ± 0.03 % injected dose/g | Biodistribution, Stomach [10]: 0.07 ± 0.1 % injected dose/g
